# In publication PMC12419922, “Myristoylated Cathelicidin-DM Fused With ANG1-7: A Novel Self-Assembling Antimicrobial Peptide for the Treatment and Mechanism of Diabetic Infected Wounds” (Journal of Diabetes Research, 2025):
# Where no end group is shown, it is not given here. The star is where a group is joined. Myristoyl = CCCCCCCCCCCCCC(=O)*
# Assays:
# E. coli (ATCC 25922) = experiment: MIC and growth inhibition, broth microdilution; assay type: cell-based, Escherichia coli
# Procedure: (§1) The minimum inhibitory concentrations (MICs) of DM and MYR-DM-ANG1-7 were determined using the broth microdilution method. E. coli (ATCC 25922) and S. aureus (ATCC 25923) were cultured overnight in Mueller–Hinton broth (MHB) at 37°C. The cultures were diluted to 2 × 10^5 CFU/mL. The peptides were serially diluted in 10 mM phosphate-buffered solution (PBS) and added to a 96-well plate. The bacterial suspensions were mixed with an equal volume of peptide solution and incubated at 37°C for 18 h. Bacterial growth inhibition was determined by measuring the absorbance at 600 nm using a M200 multiwavelength microplate reader (Infinite M200 PRO, Switzerland). Subsequently, bacterial suspensions were treated with 1 × MIC, 2 × MIC, 3 × MIC, and 4 × MIC concentrations of the AMPs and sampled at 0, 3, 6, 12, 18, and 24 h. The absorbance was measured at 600 nm. The experiment was repeated three times.
# [1] = system: S. aureus (ATCC 25923) infected diabetic wound; experiment: Diabetic mouse S. aureus-infected full-thickness skin wound model; conditions: for wound healing rate: 200 μL subcutaneously for 3 days, n = 4
# Procedure: BALB/c male mice are from the Experimental Animal Center of Air Force Military Medical University. One group was fed a normal diet, and the other five groups were fed a high-fat diet for 4 weeks and then injected with 35 mg/kg streptozotocin (STZ, 35 mg/kg, Sigma) intraperitoneally for 3 days. […] After intraperitoneal injection of pentobarbital sodium (1%, […]), the dorsal hair of each animal was shaved off, and a circular full-thickness skin wound was created on the back using a 10-mm sterile mouse punch. S. aureus (ATCC 25923) was used to infect the wound site of mice, and a full-thickness wound infection model of mice was established. S. aureus was first resuscitated by operation in a biological ultra-clean table. A single colony was picked and incubated in LB medium at 37°C and 200 rpm. The concentration of the above S. aureus solution was adjusted to 1 × 10^8 CFU/mL to infect the wound of mice. Then, 24 h after S. aureus infection, three drugs, DM (20 μg/mL), ANG1-7 (20 μg/mL), and MYR-DM-ANG1-7 (20 μg/mL), were dissolved in PBS buffer, and 200 μL was injected subcutaneously for 3 days. After drug injection, the wound pus was diluted and coated with plate culture to observe the colony situation. The gross specimen imaging system (GF-7A, China) was used to record the wounds of mice on the same day and every other day after the formation of the wounds. The rubber ring with adhesive backing was used to fix the wound and prevent it from shrinking. ImageJ analysis software (NIH, Bethesda, MD, United States) was used to calculate and analyze the wound area. After 0, 3, 7, 10, and 14 days, the size of the infected wound was evaluated by rubber ring. The wound closure was measured as follows: the wound healing rate (%) = [W0 − Wn]/W0 × 100%, where W0 and Wn represent the wound area on the 0th and nth days, respectively (n = 4).
# On the 14th day, the skin tissue was fixed in 4% paraformaldehyde solution, dehydrated, embedded in paraffin, sliced, and stained with hematoxylin–eosin (HE) and Masson. Skin tissue sections on Day 7 were immunofluorescently stained using rabbit anti-mouse CD31 (Cell Signaling Technology) and α-SMA (Cell Signaling Technology), and all stained sections were observed under the slide scanner (Aperio AT 2; Leica Biosystems, Germany).
# HUVECs [2] = experiment: NO secretion, Griess reaction; assay type: cell-based, human; conditions: HG + LPS (HG + LPS 0.5 times the original level), n = 3
# Procedure: NO levels were determined using the Griess reaction. Briefly, 100 μL of cell culture supernatant was mixed with an equal volume of Griess reagent and incubated at room temperature in the dark for 30 min. The absorbance of the reaction mixture was measured at 540 nm using a microplate reader. Sodium nitrite (NaNO2) was used as a standard to generate a calibration curve, and the NO concentration in the samples was calculated accordingly. All experiments were independently performed in triplicate to ensure data reliability and reproducibility.
# HUVECs [3] = experiment: Scratch wound healing assay; assay type: cell-based, human; conditions: HG + LPS, 20 μg/mL, n = 3
# Procedure: In a 6-well plate, HUVECs (2 × 10^5 cells/well) were seeded. The cells were starved in serum-free medium for 12 h, and then, a scratch was made vertically using a 200-μL pipette tip. […]
# HUVECs [4] = experiment: Tube formation (angiogenesis) on Matrigel; assay type: cell-based, human; conditions: 9 h, n = 3
# Procedure: The formation of vascular structure was observed by matrix glue experiment, and the angiogenesis ability was evaluated in Matrigel stent (Corning, New York). After treatment in each group, 300 μL (2 × 10^5 cells/mL) HUVECs were digested and inoculated into a 24-well plate containing Matrigel scaffold. After 9 h, the formation image of the tube was photographed.
# S. aureus (ATCC 25923) = experiment: MIC and growth inhibition, broth microdilution; assay type: cell-based, Staphylococcus aureus
# Procedure: as §1
# [5] = 4 × MIC (128 μg/mL), OD 600 nm at 0-24 h, repeated three times
substance,measurement,setting,value
Myristoyl-SSRRKPCKGWLCKLKLRGGYTLIGSATNLNRPTYVRAGGGDRVYIHP (cysteines drawn unpaired) [MYR-DM-ANG1-7],growth of E. coli (inhibition curve),E. coli (ATCC 25922); [5],completely inhibit
same,Minimum inhibitory concentration,"E. coli (ATCC 25922); E. coli ATCC 25922, broth microdilution, MHB, 2 × 10^5 CFU/mL, 37°C, 18 h, absorbance 600 nm",12 µg/mL
same,increase of antibacterial efficacy compared to DM,E. coli (ATCC 25922); from MIC values against S. aureus and E. coli,1.3 fold
same,wound healing rate,"[1]; 7th day, 20 μg/mL in PBS",72.77%
same,wound healing rate,"[1]; 10th day (diabetic control 40.26%), 20 μg/mL",85.22%
same,wound healing rate,"[1]; 14th day (diabetic control 52.34%), 20 μg/mL",95.66%
same,pathological changes in the liver and kidneys,"[1]; 14th day, H&E",no evidence of organ damage or pathological changes
same,"blood vessels, CD31 immunofluorescence","[1]; Day 7, compared with the diabetes infection group, p < 0.05",more blood vessels
same,epidermis of wound tissue (HE staining),"[1]; Day 14, compared with the diabetes infection group",became thinner
same,collagen deposition area (Masson staining),"[1]; Day 14, p < 0.0001",became larger
same,fluorescence intensity of α-SMA,"[1]; seventh day, vs the diabetes infection group, p < 0.01",significantly higher
same,number of bacteria in the wound,"[1]; wound pus plated on LB agar after 24 h of treatment, p < 0.0001",decreased
same,"NO secretion in cell supernatant, increases to",HUVECs [2],1.63 times
same,wound healing rate (scratch assay),HUVECs [3]; after 12 h,61.6%
same,healing area (scratch assay),HUVECs [3]; at 48 h,100%
same,main connections of formed blood vessels,HUVECs [4]; HG + LPS (HG + LPS group 0.3 times),1.9 times
same,length of formed blood vessels,HUVECs [4]; HG + LPS (HG + LPS group 0.4 times),1.7 times
same,growth of S. aureus (inhibition curve),S. aureus (ATCC 25923); [5],completely inhibit
same,Minimum inhibitory concentration,"S. aureus (ATCC 25923); S. aureus ATCC 25923, broth microdilution, MHB, 2 × 10^5 CFU/mL, 37°C, 18 h, absorbance 600 nm",16 µg/mL
